The source of these data is US8012963B2, “3,4-dihydro-2H-benzo[1,4]oxazine and thiazine derivatives as CETP inhibitors” (Janssen Pharmaceutica N.V., priority 2006, dated 2011).

Each structure is given as a SMILES string. Values joined by “and” are separate entries in the source; they are usually repeats but may differ in a detail not shown here. Equal entries are not always repeated.

The first assay concerns the target T1, CETP (Homo sapiens, UniProt P11597).
T1 construct: from tissue; host or cells: human plasma from normal volunteers
T1 sequence (P11597 18-493): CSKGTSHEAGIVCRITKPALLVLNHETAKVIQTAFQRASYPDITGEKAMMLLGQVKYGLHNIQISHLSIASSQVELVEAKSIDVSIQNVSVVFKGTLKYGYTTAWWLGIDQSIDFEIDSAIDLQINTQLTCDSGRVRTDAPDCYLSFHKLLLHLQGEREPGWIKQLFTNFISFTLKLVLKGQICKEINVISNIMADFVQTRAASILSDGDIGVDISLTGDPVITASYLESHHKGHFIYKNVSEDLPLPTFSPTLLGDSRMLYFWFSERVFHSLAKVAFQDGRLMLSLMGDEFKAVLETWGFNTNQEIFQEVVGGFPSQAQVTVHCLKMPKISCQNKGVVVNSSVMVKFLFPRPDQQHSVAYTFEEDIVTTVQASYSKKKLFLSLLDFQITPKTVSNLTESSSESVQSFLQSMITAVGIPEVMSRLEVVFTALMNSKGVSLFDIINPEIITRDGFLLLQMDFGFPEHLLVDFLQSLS
Nature of the assay: CETP in vitro assay ([3H]CE-HDL transfer, Amersham kit TRKQ7005; modified protocol in human plasma). The class given is biochemical. Conditions: 1 μM compound; multiple values = multiple measurements. As for the experimental part:
The CETP inhibitory activity of the compounds was determined using a commercially available kit from Amersham Biosciences (Catalog #TRKQ7005).
For the measurement of inhibitory activity in human plasma, a modified protocol (Connolly, D. T. et al., Biochemistry, 39 13870-13879, 2000) was used. Briefly, 80 μl of human plasma (obtained from normal volunteers), approximately 25 μg/ml (200) of [^3H]CE-HDL (Amersham Biosciences from kit TRKQ7005) and 1 μl of compound dissolved in DMSO was incubated for at least 4 hrs at 37° C. and non-specific transfer was determined by incubating a corresponding plate at 4° C. (blank). After the incubation period, 100 of a solution of 1% Dextralip 50/0.5M MgCl2, pH 7.4 was added, vortexed and incubated at room temperature for 10 min. The plate was then centrifuged for 30 min at 10° C. at 3000 rpm in a Sorvall RT6000B centrifuge. Fifty microliters of the supernatant was transferred to a Picoplate (Packard) containing 100 μl of Microscint 40 (Perkin Elmer) and mixed for 30 min using a plate mixer. The radioactivity was counted using a TopCount (Perkin Elmer) and the % control was determined in the samples using the following formula: % transfer relative to vehicle controls (% control)=[cpm blank-cpm test]/cpm blank/cpm control]×100. IC50s were calculated from plots of the % control versus compound concentration.
A variety of example compounds have been made and tested, with a range of in vitro results. Below, in Table 2, are representative compounds and the corresponding data; in some cases, where multiple IC50's are shown, multiple measurements were taken. Naturally, different compounds in Formula (I), (Ia), (Ib) and (Ic) may have not activities identical to any one compound below.
Regarding `COC(=O)N(C)CCN1c2cccc(-c3cccc(OC(F)(F)F)c3)c2OCC1c1cccc(OC(F)(F)C(F)F)c1` (stereo not drawn) [Compound 42, Methyl-{2-[3-[3-(1,1,2,2-tetrafluoro-ethoxy)-phenyl]-8-(3-trifluoromethoxy-phenyl)-2,3-dihydro-benzo[1,4]oxazin-4-yl]-ethyl}-carbamic acid methyl ester], at 1 µM the inhibition was 8%.
On the same count and under the same terms, as for `CS(=O)(=O)NCCN1c2cccc(-c3cccc(OC(F)(F)F)c3)c2OCC1c1cccc(OC(F)(F)C(F)F)c1` (stereo not drawn) [Compound 43, N-{2-[3-[3-(1,1,2,2-Tetrafluoro-ethoxy)-phenyl]-8-(3-trifluoromethoxy-phenyl)-2,3-dihydro-benzo[1,4]oxazin-4-yl]-ethyl}-methanesulfonamide], the figure is 0%; as for `CN(CCN1c2cccc(-c3cccc(OC(F)(F)F)c3)c2OCC1c1cccc(OC(F)(F)C(F)F)c1)S(C)(=O)=O` (stereo not drawn) [Compound 44, N-Methyl-N-{2-[3-[3-(1,1,2,2-tetrafluoro-ethoxy)-phenyl]-8-(3-trifluoromethoxy-phenyl)-2,3-dihydro-benzo[1,4]oxazin-4-yl]-ethyl}-methanesulfonamide], 0%; as for `CC1(C)OC[C@H](CN2c3cccc(-c4cccc(OC(F)(F)F)c4)c3OC[C@@H]2c2cccc(OC(F)(F)C(F)F)c2)O1` [Compound 45, 2H-1,4-Benzoxazine, 4-[[(4S)-2,2-dimethyl-1,3-dioxolan-4-yl]methyl]-3,4-dihydro-3-[3-(1,1,2,2-tetrafluoroethoxy)phenyl]-8-[3-(trifluoromethoxy)phenyl]-, (3S)—], 25%.
Same read-out and setting: as for `CC1(C)OC[C@H](CN2c3cccc(-c4cccc(OC(F)(F)F)c4)c3OC[C@H]2c2cccc(OC(F)(F)C(F)F)c2)O1` [Compound 46, 2H-1,4-Benzoxazine, 4-[[(4S)-2,2-dimethyl-1,3-dioxolan-4-yl]methyl]-3,4-dihydro-3-[3-(1,1,2,2-tetrafluoroethoxy)phenyl]-8-[3-(trifluoromethoxy)phenyl]-, (3R)—], the figure is 20%.
With `OC[C@@H](O)CN1c2cccc(-c3cccc(OC(F)(F)F)c3)c2OC[C@@H]1c1cccc(OC(F)(F)C(F)F)c1` [Compound 47, 1,2-Propanediol, 3-[(3S)-2,3-dihydro-3-[3-(1,1,2,2-tetrafluoroethoxy)phenyl]-8-[3-(trifluoromethoxy)phenyl]-4H-1,4-benzoxazin-4-yl]-, (2S)—], the inhibition (as a rule, the drop in the measured response relative to a control, in per cent) at 1 µM was found to be 27%.
Same read-out and setting: as for `OC[C@@H](O)CN1c2cccc(-c3cccc(OC(F)(F)F)c3)c2OC[C@H]1c1cccc(OC(F)(F)C(F)F)c1` [Compound 48, 1,2-Propanediol, 3-[(3R)-2,3-dihydro-3-[3-(1,1,2,2-tetrafluoroethoxy)phenyl]-8-[3-(trifluoromethoxy)phenyl]-4H-1,4-benzoxazin-4-yl]-, (2S)—], the figure is 13%.
The same measure, in the same setting: the figure for `CC(C)(O)CN1c2cccc(-c3cccc(OC(F)(F)F)c3)c2OCC1c1cccc(OC(F)(F)C(F)F)c1` (stereo not drawn) [Compound 49, 2-Methyl-1-[3-[3-(1,1,2,2-tetrafluoro-ethoxy)-phenyl]-8-(3-trifluoromethoxy-phenyl)-2,3-dihydro-benzo[1,4]oxazin-4-yl]-propan-2-ol] is 34%.
The same measure, in the same setting: as for `COCCCC1COc2c(-c3cccc(OC(F)(F)F)c3)cccc2N1CC(O)C(F)(F)F` (stereo not drawn) [Compound 55], the figure is 0%; as for `COc1ccc(C2COc3c(-c4cccc(OC(F)(F)F)c4)cccc3N2CC(O)C(F)(F)F)s1` (stereo not drawn) [Compound 62, 1,1,1-Trifluoro-3-[3-(5-methoxy-thiophen-2-yl)-8-(3-trifluoromethoxy-phenyl)-2,3-dihydro-benzo[1,4]oxazin-4-yl]-propan-2-ol], 19%.

Still in this assay, the particulars now being: 1 μM compound; multiple values = multiple measurements; 1 µM.
Regarding `CC(C)(O)CN1c2cccc(-c3cccc(OC(F)(F)F)c3)c2OCC1c1cccc(OC(F)(F)C(F)F)c1` (stereo not drawn) [Compound 49, 2-Methyl-1-[3-[3-(1,1,2,2-tetrafluoro-ethoxy)-phenyl]-8-(3-trifluoromethoxy-phenyl)-2,3-dihydro-benzo[1,4]oxazin-4-yl]-propan-2-ol], the “% Inhibition @ 1 μM” value is 24%.
Still for that read-out and setting: the figure for `C=CCC1COc2c(-c3cccc(OC(F)(F)F)c3)cccc2N1CC(O)C(F)(F)F` (stereo not drawn) [Compound 50, 3-[3-Allyl-8-(3-trifluoromethoxy-phenyl)-2,3-dihydro-benzo[1,4]oxazin-4-yl]-1,1,1-trifluoro-propan-2-ol] is 10%; for `C=CCC1COc2c(-c3cccc(OC(F)(F)F)c3)cccc2N1CC(O)C(F)(F)F` (stereo not drawn) [Compound 51, 3-[3-Allyl-8-(3-trifluoromethoxy-phenyl)-2,3-dihydro-benzo[1,4]oxazin-4-yl]-1,1,1-trifluoro-propan-2-ol] it is 0%.
The same measure, in the same setting: as for `OCCCC1COc2c(-c3cccc(OC(F)(F)F)c3)cccc2N1CC(O)C(F)(F)F` (stereo not drawn) [Compound 52, 3-[4-(3,3,3-Trifluoro-2-hydroxy-propyl)-8-(3-trifluoromethoxy-phenyl)-3,4-dihydro-2H-benzo[1,4]oxazin-3-yl]-propan-1-ol], the figure is 13%.
Still for that read-out and setting: as for `OCCCC1COc2c(-c3cccc(OC(F)(F)F)c3)cccc2N1CC(O)C(F)(F)F` (stereo not drawn) [Compound 54, 3-[4-(3,3,3-Trifluoro-2-hydroxy-propyl)-8-(3-trifluoromethoxy-phenyl)-3,4-dihydro-2H-benzo[1,4]oxazin-3-yl]-propan-1-ol], the figure is 1%.
As for `CC(C)(C)C(=O)CC1COc2c(-c3cccc(OC(F)(F)F)c3)cccc2N1CC(O)C(F)(F)F` (stereo not drawn) [Compound 56, 3,3-Dimethyl-1-[4-(3,3,3-trifluoro-2-hydroxy-propyl)-8-(3-trifluoromethoxy-phenyl)-3,4-dihydro-2H-benzo[1,4]oxazin-3-yl]-butan-2-one], the “% Inhibition @ 1 μM” value was 9%.
On the same count and under the same terms, the figure for `CC(C)(C)C(=O)CC1COc2c(-c3cccc(OC(F)(F)F)c3)cccc2N1CC(O)C(F)(F)F` (stereo not drawn) [Compound 57, 3,3-Dimethyl-1-[4-(3,3,3-trifluoro-2-hydroxy-propyl)-8-(3-trifluoromethoxy-phenyl)-3,4-dihydro-2H-benzo[1,4]oxazin-3-yl]-butan-2-one] is 0%; for `CCc1ccc(C2COc3c(-c4cccc(OC(F)(F)F)c4)cccc3N2CC(O)C(F)(F)F)s1` (stereo not drawn) [Compound 58, 3-[3-(5-Ethyl-thiophen-2-yl)-8-(3-trifluoromethoxy-phenyl)-2,3-dihydro-benzo[1,4]oxazin-4-yl]-1,1,1-trifluoro-propan-2-ol] it is 60% and 96%.
On the same count and under the same terms, as for `CCc1ccc(C2COc3c(-c4cccc(OC(F)(F)F)c4)cccc3N2CC(O)C(F)(F)F)s1` (stereo not drawn) [Compound 59, 3-[3-(5-Ethyl-thiophen-2-yl)-8-(3-trifluoromethoxy-phenyl)-2,3-dihydro-benzo[1,4]oxazin-4-yl]-1,1,1-trifluoro-propan-2-ol], the figure is 0%; as for `COc1ccsc1C1COc2c(-c3cccc(OC(F)(F)F)c3)cccc2N1CC(O)C(F)(F)F` (stereo not drawn) [Compound 60, 1,1,1-Trifluoro-3-[3-(3-methoxy-thiophen-2-yl)-8-(3-trifluoromethoxy-phenyl)-2,3-dihydro-benzo[1,4]oxazin-4-yl]-propan-2-ol], 0%.
The same measure, in the same setting: the figure for `COc1ccsc1C1COc2c(-c3cccc(OC(F)(F)F)c3)cccc2N1CC(O)C(F)(F)F` (stereo not drawn) [Compound 61, 1,1,1-Trifluoro-3-[3-(3-methoxy-thiophen-2-yl)-8-(3-trifluoromethoxy-phenyl)-2,3-dihydro-benzo[1,4]oxazin-4-yl]-propan-2-ol] is 3%; for `COc1ccc(C2COc3c(-c4cccc(OC(F)(F)F)c4)cccc3N2CC(O)C(F)(F)F)s1` (stereo not drawn) [Compound 63, 1,1,1-Trifluoro-3-[3-(5-methoxy-thiophen-2-yl)-8-(3-trifluoromethoxy-phenyl)-2,3-dihydro-benzo[1,4]oxazin-4-yl]-propan-2-ol] it is 17%.
Consider `OC(CF)CN1c2cccc(-c3cccc(OC(F)(F)F)c3)c2OCC1c1cccc(OC(F)(F)C(F)F)c1` (stereo not drawn) [Compound 68, 1-Fluoro-3-[3-[3-(1,1,2,2-tetrafluoro-ethoxy)-phenyl]-8-(3-trifluoromethoxy-phenyl)-2,3-dihydro-benzo[1,4]oxazin-4-yl]-propan-2-ol], for which the “% Inhibition @ 1 μM” value was 79% and 91%.
The same measure, in the same setting: as for `OC(CF)CN1c2cccc(-c3cccc(OC(F)(F)F)c3)c2OCC1c1cccc(OC(F)(F)C(F)F)c1` (stereo not drawn) [Compound 69, 1-Fluoro-3-[3-[3-(1,1,2,2-tetrafluoro-ethoxy)-phenyl]-8-(3-trifluoromethoxy-phenyl)-2,3-dihydro-benzo[1,4]oxazin-4-yl]-propan-2-ol], the figure is 50%.

The assay is the same for the next values; noted with them: multiple values = multiple measurements.
`CC(C)(O)CN1c2cccc(-c3cccc(OC(F)(F)F)c3)c2OCC1c1cccc(OC(F)(F)C(F)F)c1` (stereo not drawn) [Compound 49, 2-Methyl-1-[3-[3-(1,1,2,2-tetrafluoro-ethoxy)-phenyl]-8-(3-trifluoromethoxy-phenyl)-2,3-dihydro-benzo[1,4]oxazin-4-yl]-propan-2-ol]: it took 560 nM to reach half-maximal inhibition (IC50).
Still for that read-out and setting: the figure for `CCc1ccc(C2COc3c(-c4cccc(OC(F)(F)F)c4)cccc3N2CC(O)C(F)(F)F)s1` (stereo not drawn) [Compound 58, 3-[3-(5-Ethyl-thiophen-2-yl)-8-(3-trifluoromethoxy-phenyl)-2,3-dihydro-benzo[1,4]oxazin-4-yl]-1,1,1-trifluoro-propan-2-ol] is 502 nM; for `OC(CF)CN1c2cccc(-c3cccc(OC(F)(F)F)c3)c2OCC1c1cccc(OC(F)(F)C(F)F)c1` (stereo not drawn) [Compound 68, 1-Fluoro-3-[3-[3-(1,1,2,2-tetrafluoro-ethoxy)-phenyl]-8-(3-trifluoromethoxy-phenyl)-2,3-dihydro-benzo[1,4]oxazin-4-yl]-propan-2-ol] it is 127 nM.
